Experimental data taken from patent US20250313560A1, “Novel bicyclic benzylamido pyridine derivatives as SOS1 inhibitors” (Boehringer Ingelheim International GmbH, priority 2024, published 2025).
Where two headings read alike, the source gives them in different places.

What was measured:
SOS1 and KRAS G12C = SOS1 and KRAS G12C (Homo sapiens (Human), UniProt Q07889); assay: KRAS::SOS1 AlphaScreen binding assay (KRAS G12C); details: average of at least two measurements
SOS1 and KRAS G12D = SOS1 and KRAS G12D (Homo sapiens (Human), UniProt Q07889); assay: KRAS::SOS1 AlphaScreen binding assay (KRAS G12D); details: average of at least two measurements
[1] = test system: ERK phosphorylation in NCI-H358 SOS2 KO cells (KRAS G12C); assay: Erk phosphorylation assay; assay type: cell-based, human; details: EGF stimulated, average of at least two measurements, read-out: pERK IC50
Method in brief: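 NCI-H358 SOS2 KO cells (KRAS G12C) in DMEM/2% FBS were pretreated 50 min with compound, then stimulated with EGF (approx. 8 ng/mL) for 10-15 min. pERK1/2 (Thr202/Tyr204) measured in lysates by AlphaLISA SureFire; IC50 from variable-slope fit, averaged over at least two measurements.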

P450 3A4 = P450 3A4 (Homo sapiens (Human), UniProt P08684); assay: Cytochrome P450 isoenzyme inhibition assay (P450 3A4, midazolam); assay type: in vitro ADME; details: human liver microsomes, Midazolam as substrate; read-out: CYP3A4 inhibition IC50
Method in brief: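 Midazolam (5 μM) hydroxylation by human liver microsomes (0.1 mg/ml) in 0.1 M TRIS with 5 mM MgCl2, started with 1 mM NADPH. Five compound concentrations in duplicate, e.g. top 50 μM with 1:4 dilutions. Metabolite quantified by LC-MS/MS against internal standard; IC50 from inhibition relative to no-compound control.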

CYP3A4 = CYP3A4 (Homo sapiens (Human), UniProt P08684); assay: Mechanism-based inhibition of CYP3A4 assay (MBI 3A4); assay type: in vitro ADME; details: human liver microsomes, midazolam substrate, hydroxy-midazolam formation after 30 min preincubation relative to 0 min; for inhibition at 30 min: human, probe midazolam 15 μM (hydroxy-midazolam formation), read-out: MBI inhibition % ctrl. [%] with MDZ
Method in brief: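 Human liver microsomes (0.2 mg/mL) were preincubated with compound at 0, 5 or 25 μM plus 1 mM NADPH for 0, 10 or 30 min, then diluted 1:10 and incubated 10 min with 15 μM midazolam. Hydroxy-midazolam was measured by LC/MS-MS; readout is formation after 30 min relative to 0 min preincubation (%).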

human hepatocytes = assay: Metabolic stability in human hepatocytes; details: 1 μM test compound, 50% human serum, percentage of liver blood flow
[2] = Homo sapiens, NCI-H358, NCI-H358 SOS2 KO cells

Chain of P450 3A4 (P08684 whole entry): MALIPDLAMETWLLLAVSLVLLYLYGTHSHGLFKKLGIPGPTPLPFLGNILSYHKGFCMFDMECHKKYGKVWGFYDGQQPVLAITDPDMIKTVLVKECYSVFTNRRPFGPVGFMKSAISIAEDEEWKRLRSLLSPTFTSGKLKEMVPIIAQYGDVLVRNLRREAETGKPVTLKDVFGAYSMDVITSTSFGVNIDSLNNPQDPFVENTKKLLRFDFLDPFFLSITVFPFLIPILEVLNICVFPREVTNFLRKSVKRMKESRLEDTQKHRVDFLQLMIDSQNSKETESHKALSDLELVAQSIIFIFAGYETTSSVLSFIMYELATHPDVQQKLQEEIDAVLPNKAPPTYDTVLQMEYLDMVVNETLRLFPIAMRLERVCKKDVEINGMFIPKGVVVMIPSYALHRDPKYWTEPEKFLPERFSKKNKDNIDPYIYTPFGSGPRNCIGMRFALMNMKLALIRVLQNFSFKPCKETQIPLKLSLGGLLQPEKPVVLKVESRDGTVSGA
Chain of CYP3A4 (P08684 whole entry): as above
Chain of SOS1 and KRAS G12C (Q07889 564-1049, stated change not applied): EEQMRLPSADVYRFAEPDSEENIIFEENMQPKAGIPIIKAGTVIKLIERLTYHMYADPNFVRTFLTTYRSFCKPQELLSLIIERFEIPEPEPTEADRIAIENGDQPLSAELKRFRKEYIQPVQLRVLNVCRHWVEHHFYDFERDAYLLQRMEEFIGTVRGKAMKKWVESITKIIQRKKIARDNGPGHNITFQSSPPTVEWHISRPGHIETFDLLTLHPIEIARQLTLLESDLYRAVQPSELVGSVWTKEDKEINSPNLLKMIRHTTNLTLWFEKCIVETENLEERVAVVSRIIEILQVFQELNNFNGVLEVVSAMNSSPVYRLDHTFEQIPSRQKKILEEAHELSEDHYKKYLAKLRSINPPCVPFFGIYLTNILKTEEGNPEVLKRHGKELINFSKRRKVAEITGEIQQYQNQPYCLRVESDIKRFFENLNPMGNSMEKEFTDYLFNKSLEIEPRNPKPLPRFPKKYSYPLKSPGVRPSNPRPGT
Chain of SOS1 and KRAS G12D (Q07889 564-1049, stated change not applied): as above

Row | Compound | IC50 (SOS1 and KRAS G12C) [nM] | IC50 (SOS1 and KRAS G12D) [nM] | IC50 [1, 2] [µM] | IC50 (P450 3A4) [µM] | inhibition at 30 min (CYP3A4) [%] | Hepatic clearance - QH[%] in human hepatocytes (human hepatocytes) [%] | IC50 ([1]; NCI-H358 SOS2 KO cells) [µM] | MBI inhibition % ctrl. [%] with MDZ (CYP3A4) [%]
1 | C[C@@H](NC(=O)c1cc(N2CCC(N3CCC4(CC4)C3)CC2)c2ncnn2c1)c1cccc(C(F)F)c1F [Example E8] | 70 | 69 | 0.188 | > 50 | 97 | 18 |  | 
2 | CO[C@H]1CCN(C2CCN(c3cc(C(=O)N[C@H](C)c4cccc(C(F)F)c4F)cn4ncnc34)CC2)C1 [Example E10] | 74 | 67 | 0.212 | > 50 | 97 | 29 |  | 
3 | C[C@@H](NC(=O)c1cc(N2CCC(N3CCC[C@H](O)C3)CC2)c2ncnn2c1)c1cccc(C(F)F)c1F [Example E18] | 49 | 37 | 0.054 | > 50 | 99 | 17 |  | 
4 | C[C@@H](NC(=O)c1cc(N2CCC(N3CCC[C@@H](O)C3)CC2)c2ncnn2c1)c1cccc(C(F)F)c1F [Example E22] | 48 | 49 | 0.187 | > 50 | 100 | 19 |  | 
5 | C[C@@H]1C[C@H](O)CN1C1CCN(c2cc(C(=O)N[C@H](C)c3cccc(C(F)(F)F)c3F)cn3ncnc23)CC1 [Example E24] | 56 | 46 |  | > 50 |  | 22 | 0.325 | 99
6 | C[C@@H]1[C@H](O)CN1C1CCN(c2cc(C(=O)N[C@H](C)c3cccc(C(F)(F)F)c3F)cn3ncnc23)CC1 [Example E25] | 63 | 53 | 0.282 | > 50 | 91 | 17 |  | 
7 | C[C@@H](NC(=O)c1cc(N2CCC(N3CC[C@H](CO)C3)CC2)c2ncnn2c1)c1cccc(C(F)(F)F)c1F [Example E26] | 86 | 78 | 0.147 | > 50 | 92 | 8 |  | 
8 | C[C@@H](NC(=O)c1cc(N2CCC(N3CC[C@@H](CO)C3)CC2)c2ncnn2c1)c1cccc(C(F)(F)F)c1F [Example E27] | 77 | 73 | 0.073 | > 50 | 90 | 9 |  | 
9 | C[C@@H](NC(=O)c1cc(N2CCC(N3C[C@H](O)C4(CC4)C3)CC2)c2ncnn2c1)c1cccc(C(F)(F)F)c1F [Example E28] | 70 | 70 | 0.186 | > 50 | 90 | 23 |  | 
10 | C[C@@H](NC(=O)c1cc(N2CCC(N3C[C@@H](O)C4(CC4)C3)CC2)c2ncnn2c1)c1cccc(C(F)(F)F)c1F [Example E30] | 59 | 51 | 0.296 | > 50 | 103 | 18 |  | 
11 | C[C@@H](NC(=O)c1cc(N2CCC(N3C[C@@H](O)[C@@H]3C)CC2)c2ncnn2c1)c1cccc(C(F)(F)F)c1F [Example E32] | 44 | 43 | 0.27 | > 50 | 92 | 23 |  | 
12 | C[C@@H](NC(=O)c1cc(N2CCC(N(C)C)CC2)c2ncnn2c1)c1cccc(C(F)(F)F)c1F [Example E35] | 57 | 48 | 0.16 | > 50 | 94 | 6 |  | 
13 | C[C@@H](O)CNC1CCN(c2cc(C(=O)N[C@H](C)c3cccc(C(F)(F)F)c3F)cn3ncnc23)CC1 [Example E39] | 53 | 54 | 0.251 | > 50 | 75 | 43 |  | 
14 | C[C@H](O)CNC1CCN(c2cc(C(=O)N[C@H](C)c3cccc(C(F)(F)F)c3F)cn3ncnc23)CC1 [Example E40] | 50 | 53 | 0.277 | > 50 | 75 | 22 |  | 
15 | C[C@@H](NC(=O)c1cc(N2CCC(N3CCC[C@H](O)C3)CC2)c2ncnn2c1)c1cccc(C(F)(F)F)c1F [Example E44] | 63 | 42 | 0.058 | > 50 | 95 | 16 |  | 

The next lines start with results.

Row | IC50 (SOS1 and KRAS G12C) [nM] | IC50 (SOS1 and KRAS G12D) [nM] | IC50 [1, 2] [µM] | IC50 (P450 3A4) [µM] | inhibition at 30 min (CYP3A4) [%] | Hepatic clearance - QH[%] in human hepatocytes (human hepatocytes) [%] | Compound | IC50 ([1]; NCI-H358 SOS2 KO cells) [µM] | MBI inhibition % ctrl. [%] with MDZ (CYP3A4) [%]
16 | 30 | 24 | 0.11 | > 50 | 79 | 12 | C[C@@H](NC(=O)c1cc(N2CCC(N3C[C@@H](O)C[C@@H]3C)CC2)c2ncnn2c1)c1cccc(C(F)F)c1F [Example E12] |  | 
17 | 32 | 27 | 0.222 | > 50 | 102 | 19 | C[C@@H](NC(=O)c1cc(N2CCC3(CCCCN3)CC2)c2ncnn2c1)c1cccc(C(F)F)c1F [Example E19] |  | 
18 | 44 | 33 | 0.146 | > 50 | 94 | 19 | C[C@@H](NC(=O)c1cc(N2CCC3(CCCN3C)CC2)c2ncnn2c1)c1cccc(C(F)F)c1F [Example E20] |  | 
19 | 33 | 28 | 0.153 | > 50 | 91 | 13 | C[C@@H](NC(=O)c1cc(N2CCC(N3CCC[C@H]3CO)CC2)c2ncnn2c1)c1cccc(C(F)(F)F)c1F [Example E31] |  | 
20 | 42 | 34 | 0.062 | > 50 | 106 | 10 | C[C@@H](NC(=O)c1cc(N2CCC3(CCCN3)CC2)c2ncnn2c1)c1cccc(C(F)(F)F)c1F [Example E34] |  | 
21 | 28 | 22 | 0.144 | > 50 | 96 | 10 | C[C@@H](NC(=O)c1cc(N2CCC3(CCNC3)CC2)c2ncnn2c1)c1cccc(C(F)(F)F)c1F [Example E36] |  | 
22 | 31 | 21 | 0.152 | > 50 | 90 | 25 | C[C@@H](NC(=O)c1cc(N2CCC3(CCCN3C)CC2)c2ncnn2c1)c1cccc(C(F)(F)F)c1F [Example E37] |  | 
23 | 33 | 30 | 0.139 | > 50 | 97 | <4 | C[C@@H](NC(=O)c1cc(N2CCC3(CCCCN3)CC2)c2ncnn2c1)c1cccc(C(F)(F)F)c1F [Example E45] |  | 
24 | 34 | 31 | 0.162 | > 50 | 98 | 9 | C[C@@H](NC(=O)c1cc(N2CCC3(CCCCN3C)CC2)c2ncnn2c1)c1cccc(C(F)(F)F)c1F [Example E46] |  | 
